This note sets out measurements from ChEMBL document CHEMBL1743141, “Membrane transporters in drug development” (Nat Rev Drug Discov, 2010).

Holding throughout (assay type): ADME
Data set [1] has as its target ATP-dependent translocase ABCB1 (Homo sapiens, UniProt P08183). Put plainly: Substrates of transporters of clinical importance in the absorption and disposition of drugs, MDR1.
Data set [2] concerns the target ATP-binding cassette sub-family C member 2 (Homo sapiens, UniProt Q92887). As to the kind of experiment: Substrates of transporters of clinical importance in the absorption and disposition of drugs, MRP2.
The target in data set [3] is T1, Solute carrier family 15 member 2 (Homo sapiens, UniProt Q16348).
T1 sequence (Q16348 whole entry): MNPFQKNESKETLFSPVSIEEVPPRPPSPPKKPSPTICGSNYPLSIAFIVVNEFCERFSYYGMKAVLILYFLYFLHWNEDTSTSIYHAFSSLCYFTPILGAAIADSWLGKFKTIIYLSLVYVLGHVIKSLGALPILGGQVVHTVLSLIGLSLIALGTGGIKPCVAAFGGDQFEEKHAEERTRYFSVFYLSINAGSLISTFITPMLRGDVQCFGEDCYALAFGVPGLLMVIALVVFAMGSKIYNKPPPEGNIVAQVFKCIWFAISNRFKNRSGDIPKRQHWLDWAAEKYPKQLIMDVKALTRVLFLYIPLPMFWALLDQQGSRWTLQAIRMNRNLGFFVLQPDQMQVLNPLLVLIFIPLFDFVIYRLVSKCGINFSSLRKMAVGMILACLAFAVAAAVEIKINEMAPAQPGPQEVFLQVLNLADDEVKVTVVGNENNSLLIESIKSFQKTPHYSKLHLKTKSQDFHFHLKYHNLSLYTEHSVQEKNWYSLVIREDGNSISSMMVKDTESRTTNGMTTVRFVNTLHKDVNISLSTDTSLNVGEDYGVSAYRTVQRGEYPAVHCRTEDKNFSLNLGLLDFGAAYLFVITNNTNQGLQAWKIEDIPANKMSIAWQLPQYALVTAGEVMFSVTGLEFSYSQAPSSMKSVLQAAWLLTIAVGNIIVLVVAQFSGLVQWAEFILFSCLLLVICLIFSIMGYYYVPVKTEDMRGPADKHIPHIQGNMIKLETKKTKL
Put plainly: Substrates of transporters of clinical importance in the absorption and disposition of drugs, PEPT2.

Data set [4] deals with T2, Solute carrier family 15 member 1 (Homo sapiens, UniProt P46059).
T2 sequence (P46059 whole entry): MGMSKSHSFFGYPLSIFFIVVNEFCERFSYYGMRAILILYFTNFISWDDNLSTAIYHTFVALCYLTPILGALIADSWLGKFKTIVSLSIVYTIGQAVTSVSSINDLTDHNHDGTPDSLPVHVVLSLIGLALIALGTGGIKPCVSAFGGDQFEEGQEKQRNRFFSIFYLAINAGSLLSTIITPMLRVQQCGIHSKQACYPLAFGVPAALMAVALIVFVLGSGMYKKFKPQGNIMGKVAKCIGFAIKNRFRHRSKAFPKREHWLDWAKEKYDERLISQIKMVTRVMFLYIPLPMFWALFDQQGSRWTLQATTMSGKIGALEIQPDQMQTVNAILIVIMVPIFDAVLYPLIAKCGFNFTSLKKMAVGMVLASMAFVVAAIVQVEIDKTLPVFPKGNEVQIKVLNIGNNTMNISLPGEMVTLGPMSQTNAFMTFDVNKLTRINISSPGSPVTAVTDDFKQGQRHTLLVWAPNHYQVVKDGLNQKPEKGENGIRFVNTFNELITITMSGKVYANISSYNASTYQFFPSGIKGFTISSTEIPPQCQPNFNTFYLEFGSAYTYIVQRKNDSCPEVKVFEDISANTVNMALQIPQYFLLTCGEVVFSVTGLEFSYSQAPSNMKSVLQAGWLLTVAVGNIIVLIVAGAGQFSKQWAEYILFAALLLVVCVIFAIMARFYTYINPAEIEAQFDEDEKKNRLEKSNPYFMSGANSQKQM
Put plainly: Substrates of transporters of clinical importance in the absorption and disposition of drugs, PEPT1.

In data set [5] the target is T3, Solute carrier organic anion transporter family member 1A2 (Homo sapiens, UniProt P46721).
T3 sequence (P46721 whole entry): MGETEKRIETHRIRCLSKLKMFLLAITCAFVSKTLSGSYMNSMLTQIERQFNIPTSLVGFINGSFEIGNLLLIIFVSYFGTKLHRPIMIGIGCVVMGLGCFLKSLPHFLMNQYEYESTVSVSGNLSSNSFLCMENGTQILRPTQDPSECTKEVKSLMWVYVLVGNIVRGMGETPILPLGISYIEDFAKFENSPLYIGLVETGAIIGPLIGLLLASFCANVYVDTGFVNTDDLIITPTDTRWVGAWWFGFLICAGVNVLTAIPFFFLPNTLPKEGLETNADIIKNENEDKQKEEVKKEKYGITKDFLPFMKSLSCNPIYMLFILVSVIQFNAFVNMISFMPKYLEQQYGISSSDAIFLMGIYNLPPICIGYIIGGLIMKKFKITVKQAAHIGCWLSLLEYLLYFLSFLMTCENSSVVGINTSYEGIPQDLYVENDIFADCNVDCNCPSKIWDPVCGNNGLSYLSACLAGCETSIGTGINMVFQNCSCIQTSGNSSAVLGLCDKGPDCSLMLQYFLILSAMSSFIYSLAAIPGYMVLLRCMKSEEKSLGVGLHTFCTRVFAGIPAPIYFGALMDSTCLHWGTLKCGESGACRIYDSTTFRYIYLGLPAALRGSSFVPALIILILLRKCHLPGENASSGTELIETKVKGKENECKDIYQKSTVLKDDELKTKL
As to the kind of experiment: Substrates of transporters of clinical importance in the absorption and disposition of drugs, OATP1A2.

Data set [6] deals with T4, ATP-binding cassette sub-family C member 4 (Homo sapiens, UniProt O15439).
T4 sequence (O15439 whole entry): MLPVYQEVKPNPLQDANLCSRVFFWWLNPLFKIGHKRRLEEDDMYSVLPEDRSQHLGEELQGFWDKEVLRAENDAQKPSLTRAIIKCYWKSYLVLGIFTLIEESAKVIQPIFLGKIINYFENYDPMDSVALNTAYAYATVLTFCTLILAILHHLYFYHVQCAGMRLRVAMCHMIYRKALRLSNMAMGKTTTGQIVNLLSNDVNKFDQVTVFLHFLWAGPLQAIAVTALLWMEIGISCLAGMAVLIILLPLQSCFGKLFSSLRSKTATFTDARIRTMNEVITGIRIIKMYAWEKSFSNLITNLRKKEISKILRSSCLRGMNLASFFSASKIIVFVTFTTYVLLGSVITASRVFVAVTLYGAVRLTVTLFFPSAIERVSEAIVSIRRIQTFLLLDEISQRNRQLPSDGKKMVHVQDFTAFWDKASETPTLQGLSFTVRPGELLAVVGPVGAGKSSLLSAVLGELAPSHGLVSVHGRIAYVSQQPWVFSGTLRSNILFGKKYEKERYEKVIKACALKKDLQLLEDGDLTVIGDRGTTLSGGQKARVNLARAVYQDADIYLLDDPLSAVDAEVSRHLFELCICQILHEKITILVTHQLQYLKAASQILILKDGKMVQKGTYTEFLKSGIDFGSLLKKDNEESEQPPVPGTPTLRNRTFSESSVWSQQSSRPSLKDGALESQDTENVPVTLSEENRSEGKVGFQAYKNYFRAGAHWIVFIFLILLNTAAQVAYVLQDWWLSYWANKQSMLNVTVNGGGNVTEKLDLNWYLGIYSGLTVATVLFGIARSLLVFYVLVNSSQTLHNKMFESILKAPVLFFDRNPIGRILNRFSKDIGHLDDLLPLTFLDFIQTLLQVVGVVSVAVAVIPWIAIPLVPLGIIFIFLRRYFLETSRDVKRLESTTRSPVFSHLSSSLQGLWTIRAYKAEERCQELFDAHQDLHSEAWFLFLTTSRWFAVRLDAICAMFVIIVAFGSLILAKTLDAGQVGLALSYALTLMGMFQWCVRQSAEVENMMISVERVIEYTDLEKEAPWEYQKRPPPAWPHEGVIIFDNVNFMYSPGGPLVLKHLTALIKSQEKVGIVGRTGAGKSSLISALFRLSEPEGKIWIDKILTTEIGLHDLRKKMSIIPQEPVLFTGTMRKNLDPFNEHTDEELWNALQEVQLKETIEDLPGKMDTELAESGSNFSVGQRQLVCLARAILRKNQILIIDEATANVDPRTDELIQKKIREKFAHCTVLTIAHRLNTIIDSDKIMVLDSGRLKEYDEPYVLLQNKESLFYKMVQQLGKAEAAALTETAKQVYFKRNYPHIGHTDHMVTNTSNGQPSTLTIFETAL
Put plainly: Substrates of transporters of clinical importance in the absorption and disposition of drugs, MRP4.

Molecules are shown by their SMILES. Square brackets hold non-standard residues; d marks the D form. Peptide text beside a SMILES is read from it. Sar = CNCC(=O)O

Sequence of ATP-dependent translocase ABCB1 (P08183 whole entry): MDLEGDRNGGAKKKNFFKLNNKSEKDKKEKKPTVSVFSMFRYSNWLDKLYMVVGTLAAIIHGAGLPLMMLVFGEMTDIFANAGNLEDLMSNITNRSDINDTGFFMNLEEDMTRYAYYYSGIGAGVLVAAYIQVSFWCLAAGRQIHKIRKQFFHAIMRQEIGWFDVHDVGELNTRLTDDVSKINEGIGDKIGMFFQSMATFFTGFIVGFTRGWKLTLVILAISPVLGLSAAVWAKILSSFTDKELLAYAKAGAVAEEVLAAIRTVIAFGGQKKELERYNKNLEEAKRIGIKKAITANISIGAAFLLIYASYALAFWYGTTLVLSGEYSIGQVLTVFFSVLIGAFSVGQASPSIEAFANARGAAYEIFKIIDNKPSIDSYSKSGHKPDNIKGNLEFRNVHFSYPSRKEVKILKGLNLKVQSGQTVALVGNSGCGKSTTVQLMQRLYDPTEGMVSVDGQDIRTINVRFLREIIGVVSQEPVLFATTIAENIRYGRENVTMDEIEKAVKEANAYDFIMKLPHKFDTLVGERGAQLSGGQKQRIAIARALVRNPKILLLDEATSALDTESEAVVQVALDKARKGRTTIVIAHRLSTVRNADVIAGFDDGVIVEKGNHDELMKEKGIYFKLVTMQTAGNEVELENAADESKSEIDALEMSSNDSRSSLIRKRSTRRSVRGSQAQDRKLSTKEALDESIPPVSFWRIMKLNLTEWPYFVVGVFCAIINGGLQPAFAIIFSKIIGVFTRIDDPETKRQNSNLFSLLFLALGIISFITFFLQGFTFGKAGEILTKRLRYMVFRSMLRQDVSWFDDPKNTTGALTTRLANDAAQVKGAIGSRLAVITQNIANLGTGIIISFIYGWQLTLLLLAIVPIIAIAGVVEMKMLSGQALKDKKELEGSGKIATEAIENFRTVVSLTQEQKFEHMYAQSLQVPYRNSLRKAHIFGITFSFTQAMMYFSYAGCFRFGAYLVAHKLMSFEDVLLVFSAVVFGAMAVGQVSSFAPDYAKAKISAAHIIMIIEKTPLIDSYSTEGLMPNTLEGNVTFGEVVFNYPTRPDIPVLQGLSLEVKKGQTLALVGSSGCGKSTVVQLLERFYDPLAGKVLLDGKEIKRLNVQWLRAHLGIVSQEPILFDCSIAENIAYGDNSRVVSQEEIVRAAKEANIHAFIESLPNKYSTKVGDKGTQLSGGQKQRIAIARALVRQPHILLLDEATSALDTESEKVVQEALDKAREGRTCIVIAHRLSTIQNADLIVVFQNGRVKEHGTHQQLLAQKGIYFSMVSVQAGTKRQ
Sequence of ATP-binding cassette sub-family C member 2 (Q92887 whole entry): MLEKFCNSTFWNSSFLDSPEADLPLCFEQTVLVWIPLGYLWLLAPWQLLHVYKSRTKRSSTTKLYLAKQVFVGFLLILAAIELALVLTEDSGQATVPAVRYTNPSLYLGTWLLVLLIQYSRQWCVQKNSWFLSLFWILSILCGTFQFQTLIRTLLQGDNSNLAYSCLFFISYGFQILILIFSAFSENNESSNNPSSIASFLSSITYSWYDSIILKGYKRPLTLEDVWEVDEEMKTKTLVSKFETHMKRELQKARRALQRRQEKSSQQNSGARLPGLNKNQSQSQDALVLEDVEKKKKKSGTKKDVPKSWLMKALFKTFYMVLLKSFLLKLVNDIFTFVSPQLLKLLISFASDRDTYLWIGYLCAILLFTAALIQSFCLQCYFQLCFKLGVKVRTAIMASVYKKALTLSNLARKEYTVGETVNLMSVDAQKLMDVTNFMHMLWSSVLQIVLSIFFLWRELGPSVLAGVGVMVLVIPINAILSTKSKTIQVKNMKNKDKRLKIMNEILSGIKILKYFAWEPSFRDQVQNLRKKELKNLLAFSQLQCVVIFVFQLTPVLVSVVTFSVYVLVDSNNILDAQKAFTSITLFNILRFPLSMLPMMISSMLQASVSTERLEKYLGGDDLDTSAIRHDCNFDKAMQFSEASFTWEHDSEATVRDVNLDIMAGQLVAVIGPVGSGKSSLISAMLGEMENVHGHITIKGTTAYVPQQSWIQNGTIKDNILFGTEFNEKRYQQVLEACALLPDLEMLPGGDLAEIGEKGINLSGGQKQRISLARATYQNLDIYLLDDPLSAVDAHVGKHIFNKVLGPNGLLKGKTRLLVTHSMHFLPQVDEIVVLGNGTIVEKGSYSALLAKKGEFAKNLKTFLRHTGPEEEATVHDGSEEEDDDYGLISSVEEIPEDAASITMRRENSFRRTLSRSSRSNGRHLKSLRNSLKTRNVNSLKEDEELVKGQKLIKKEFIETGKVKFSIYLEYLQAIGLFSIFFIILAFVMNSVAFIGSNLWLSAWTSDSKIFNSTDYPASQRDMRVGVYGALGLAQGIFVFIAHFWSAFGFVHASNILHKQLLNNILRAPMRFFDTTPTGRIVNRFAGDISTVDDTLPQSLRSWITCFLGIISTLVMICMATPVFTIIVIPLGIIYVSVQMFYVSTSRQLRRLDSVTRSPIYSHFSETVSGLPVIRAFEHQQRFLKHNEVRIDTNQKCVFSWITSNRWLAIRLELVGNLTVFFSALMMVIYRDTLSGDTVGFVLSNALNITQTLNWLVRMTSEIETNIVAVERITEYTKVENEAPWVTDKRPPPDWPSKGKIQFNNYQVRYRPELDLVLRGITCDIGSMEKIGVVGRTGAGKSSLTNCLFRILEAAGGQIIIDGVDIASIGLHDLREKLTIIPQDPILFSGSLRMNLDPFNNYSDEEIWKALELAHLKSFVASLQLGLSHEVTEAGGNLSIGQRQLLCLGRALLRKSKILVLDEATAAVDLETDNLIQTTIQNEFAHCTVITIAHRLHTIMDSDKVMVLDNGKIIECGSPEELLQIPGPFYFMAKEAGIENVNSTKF

As for `COc1ccc2cc3[n+](cc2c1OC)CCc1cc2c(cc1-3)OCO2.[Cl-]` [BERBERINE CHLORIDE], the Activity entry in data set [1] is listed as “transporter substrate”.

On to `COc1cccc2c1C(=O)c1c(O)c3c(c(O)c1C2=O)C[C@@](O)(C(=O)CO)C[C@@H]3O[C@H]1C[C@H](N)[C@H](O)[C@H](C)O1` [DOXORUBICIN], for which the Activity result in data set [1] is recorded as “transporter substrate”.

Take `CCc1c2c(nc3ccc(OC[C@@H]4O[C@H](C(=O)O)[C@@H](O)[C@H](O)[C@H]4O)cc13)-c1cc3c(c(=O)n1C2)COC(=O)[C@]3(O)CC`: the Activity result in data set [2] is “transporter substrate”.

In the case of `CC1=C(C(=O)O)N2C(=O)[C@@H](NC(=O)[C@H](N)c3ccc(O)cc3)[C@H]2SC1` [CEFADROXIL], the Activity entry in data set [3] and in data set [4] was “transporter substrate” in each case.

For `CN(C)C(=O)C(CCN1CCC(O)(c2ccc(Cl)cc2)CC1)(c1ccccc1)c1ccccc1` [LOPERAMIDE], the Activity entry in data set [1] is on record as “transporter substrate”.

`NCC(=O)CCC(=O)O` [AMINOLEVULINIC ACID]: the Activity result in data set [3] and in data set [4] was “transporter substrate” in each case.

In the case of `C[C@]12CC[C@H](OS(=O)(=O)O)CC1=CC[C@@H]1[C@@H]2CC[C@]2(C)C(=O)CC[C@@H]12` [PRASTERONE SULFURIC ACID], the Activity result in data set [5] and in data set [6] was “transporter substrate” throughout.

On to `CN(CC(=O)O)C(=O)CN` [GLYCYLSARCOSINE] (H-Gly-[Sar]-OH), for which the Activity entry in data set [3] and in data set [4] was “transporter substrate” in each case.

For the compound `COc1cc([C@@H]2c3cc4c(cc3[C@@H](O[C@@H]3O[C@@H]5CO[C@@H](C)O[C@H]5[C@H](O)[C@H]3O)[C@H]3COC(=O)[C@H]23)OCO4)cc(OC)c1O` [ETOPOSIDE], the Activity entry in data set [2] is recorded as “transporter substrate”.

On to `Nc1nc2c(ncn2[C@@H]2O[C@@H]3COP(=O)(O)O[C@H]3[C@H]2O)c(=O)[nH]1`, for which, in data set [6], the Activity entry is listed as “transporter substrate”.
